Test results reported in PubChem BioAssay (NCI).
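Values below derive from 48-hour exposures of cells grown in 96-well plates, with endpoints linearly interpolated between the two concentrations bracketing the appropriate inhibition level. The concentration for 50% growth inhibition is given as GI50. TGI: concentration producing complete growth inhibition.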

Tests used:
Experiment in all cases: NCI-60 cell line screen, 48 h
MDA-MB-435 = system: MDA-MB-435
HCT-15 colon = system: HCT-15 colon
786-0 renal = system: 786-0 renal
RXF 393 renal = system: RXF 393 renal
TK-10 renal = system: TK-10 renal
EKVX NSCLC = system: EKVX NSCLC
HL-60(TB) leukemia = system: HL-60(TB) leukemia
RPMI-8226 leukemia = system: RPMI-8226 leukemia
A549 NSCLC = system: A549 NSCLC
SK-MEL-28 melanoma = system: SK-MEL-28 melanoma
OVCAR-3 ovarian = system: OVCAR-3 ovarian
KM12 colon = system: KM12 colon
SF-268 CNS = system: SF-268 CNS
SK-MEL-2 melanoma = system: SK-MEL-2 melanoma
NCI-H522 lung = system: NCI-H522 lung
PC-3 prostate = system: PC-3 prostate
NCI-H23 lung = system: NCI-H23 lung
HT29 colon = system: HT29 colon
UO-31 renal = system: UO-31 renal
SK-OV-3 ovarian = system: SK-OV-3 ovarian
CCRF-CEM leukemia = system: CCRF-CEM leukemia
A498 renal = system: A498 renal
OVCAR-5 ovarian = system: OVCAR-5 ovarian
HCT-116 colon = system: HCT-116 colon
IGROV1 ovarian = system: IGROV1 ovarian
HCC-2998 colon = system: HCC-2998 colon
SF-539 CNS = system: SF-539 CNS
HOP-62 NSCLC = system: HOP-62 NSCLC
UACC-62 melanoma = system: UACC-62 melanoma
MDA-MB-231 breast = system: MDA-MB-231 breast
NCI-H460 lung = system: NCI-H460 lung
SK-MEL-5 melanoma = system: SK-MEL-5 melanoma
SW-620 colon = system: SW-620 colon
MALME-3M melanoma = system: MALME-3M melanoma
OVCAR-4 ovarian = system: OVCAR-4 ovarian
NCI-H226 lung = system: NCI-H226 lung
HOP-92 NSCLC = system: HOP-92 NSCLC
CAKI-1 renal = system: CAKI-1 renal
BT-549 breast = system: BT-549 breast
SNB-75 CNS = system: SNB-75 CNS
U251 CNS = system: U251 CNS
ACHN renal = system: ACHN renal
DU-145 prostate = system: DU-145 prostate
HS 578T breast = system: HS 578T breast
SN12C renal = system: SN12C renal
NCI/ADR-RES ovarian = system: NCI/ADR-RES ovarian
UACC-257 melanoma = system: UACC-257 melanoma
SF-295 CNS = system: SF-295 CNS
M14 melanoma = system: M14 melanoma
SNB-19 CNS = system: SNB-19 CNS
MOLT-4 leukemia = system: MOLT-4 leukemia
MCF7 breast = system: MCF7 breast
SR leukemia = system: SR leukemia
OVCAR-8 ovarian = system: OVCAR-8 ovarian
LOX IMVI melanoma = system: LOX IMVI melanoma

Cn1cc(-c2csc(-c3c[nH]c4ccccc34)n2)c2cnccc21
GI50 (MDA-MB-435): 1870 nM | TGI (MDA-MB-435): 3430 nM | GI50 (HCT-15 colon): 1790 nM | TGI (HCT-15 colon): 3600 nM | GI50 (786-0 renal): 1900 nM | TGI (786-0 renal): 3440 nM | GI50 (RXF 393 renal): 1630 nM | TGI (RXF 393 renal): 3110 nM | GI50 (TK-10 renal): 2740 nM | TGI (TK-10 renal): 5100 nM | GI50 (EKVX NSCLC): 1920 nM | TGI (EKVX NSCLC): 4610 nM | GI50 (HL-60(TB) leukemia): 2170 nM | TGI (HL-60(TB) leukemia): 4770 nM | GI50 (RPMI-8226 leukemia): 2140 nM | TGI (RPMI-8226 leukemia): 5000 nM | GI50 (A549 NSCLC): 2470 nM | TGI (A549 NSCLC): 5880 nM | GI50 (SK-MEL-28 melanoma): 1800 nM | TGI (SK-MEL-28 melanoma): 3250 nM | GI50 (OVCAR-3 ovarian): 1960 nM | TGI (OVCAR-3 ovarian): 3560 nM | GI50 (KM12 colon): 1650 nM | TGI (KM12 colon): 3410 nM | GI50 (SF-268 CNS): 1970 nM | TGI (SF-268 CNS): 3930 nM | GI50 (SK-MEL-2 melanoma): 2100 nM | TGI (SK-MEL-2 melanoma): 3810 nM | GI50 (NCI-H522 lung): 2020 nM | TGI (NCI-H522 lung): 3910 nM | GI50 (PC-3 prostate): 2400 nM | TGI (PC-3 prostate): 6310 nM | GI50 (NCI-H23 lung): 1770 nM | TGI (NCI-H23 lung): 3970 nM | GI50 (HT29 colon): 2010 nM | TGI (HT29 colon): 4260 nM | GI50 (UO-31 renal): 1640 nM | TGI (UO-31 renal): 3350 nM | GI50 (SK-OV-3 ovarian): 1900 nM | TGI (SK-OV-3 ovarian): 3720 nM | GI50 (CCRF-CEM leukemia): 2400 nM | TGI (CCRF-CEM leukemia): 6420 nM | GI50 (A498 renal): 1890 nM | TGI (A498 renal): 3580 nM | GI50 (OVCAR-5 ovarian): 2620 nM | TGI (OVCAR-5 ovarian): 5520 nM | GI50 (HCT-116 colon): 1730 nM | TGI (HCT-116 colon): 3220 nM | GI50 (IGROV1 ovarian): 1730 nM | TGI (IGROV1 ovarian): 3550 nM | GI50 (HCC-2998 colon): 2010 nM | TGI (HCC-2998 colon): 3610 nM | GI50 (SF-539 CNS): 1790 nM | TGI (SF-539 CNS): 3290 nM | GI50 (HOP-62 NSCLC): 1790 nM | TGI (HOP-62 NSCLC): 3450 nM | GI50 (UACC-62 melanoma): 1820 nM | TGI (UACC-62 melanoma): 3320 nM | GI50 (MDA-MB-231 breast): 1670 nM | TGI (MDA-MB-231 breast): 3220 nM | GI50 (NCI-H460 lung): 1850 nM | TGI (NCI-H460 lung): 3610 nM | GI50 (SK-MEL-5 melanoma): 1760 nM | TGI (SK-MEL-5 melanoma): 3180 nM | GI50 (SW-620 colon): 1980 nM | TGI (SW-620 colon): 3690 nM | GI50 (MALME-3M melanoma): 1940 nM | TGI (MALME-3M melanoma): 3620 nM | GI50 (OVCAR-4 ovarian): 2300 nM | TGI (OVCAR-4 ovarian): 6520 nM | GI50 (NCI-H226 lung): 17100 nM | TGI (NCI-H226 lung): 45400 nM | GI50 (HOP-92 NSCLC): 1520 nM | TGI (HOP-92 NSCLC): 3280 nM | GI50 (CAKI-1 renal): 2080 nM | TGI (CAKI-1 renal): 4710 nM | GI50 (BT-549 breast): 1780 nM | TGI (BT-549 breast): 3590 nM | GI50 (SNB-75 CNS): 12900 nM | TGI (SNB-75 CNS): 26200 nM | GI50 (U251 CNS): 1950 nM | TGI (U251 CNS): 3720 nM | GI50 (ACHN renal): 1930 nM | TGI (ACHN renal): 3770 nM | GI50 (DU-145 prostate): 2240 nM | TGI (DU-145 prostate): 5650 nM | GI50 (HS 578T breast): 2210 nM | TGI (HS 578T breast): 4720 nM | GI50 (SN12C renal): 1740 nM | TGI (SN12C renal): 3310 nM | GI50 (NCI/ADR-RES ovarian): 2400 nM | TGI (NCI/ADR-RES ovarian): 5440 nM | GI50 (UACC-257 melanoma): 2000 nM | TGI (UACC-257 melanoma): 3720 nM | GI50 (SF-295 CNS): 1810 nM | TGI (SF-295 CNS): 3370 nM | GI50 (M14 melanoma): 1840 nM | TGI (M14 melanoma): 3460 nM | GI50 (SNB-19 CNS): 2070 nM | TGI (SNB-19 CNS): 4110 nM

Cc1cc2cn3c4ccc(O)cc4nc(N)c3c2cc1C
GI50 (786-0 renal): 54.1 nM | TGI (786-0 renal): 1700 nM | GI50 (TK-10 renal): 818 nM | TGI (TK-10 renal): 2760 nM | GI50 (EKVX NSCLC): 794 nM | TGI (EKVX NSCLC): 20300 nM | GI50 (HL-60(TB) leukemia): 33.1 nM | TGI (HL-60(TB) leukemia): 1210 nM | GI50 (RPMI-8226 leukemia): 71.3 nM | TGI (RPMI-8226 leukemia): 2010 nM | GI50 (MOLT-4 leukemia): 82.8 nM | TGI (MOLT-4 leukemia): 2480 nM | GI50 (A549 NSCLC): 132 nM | TGI (A549 NSCLC): 1460 nM | GI50 (SK-MEL-28 melanoma): 96.1 nM | TGI (SK-MEL-28 melanoma): 2100 nM | GI50 (OVCAR-3 ovarian): < 17.6 nM | TGI (OVCAR-3 ovarian): 1700 nM | GI50 (KM12 colon): < 10 nM | TGI (KM12 colon): 2450 nM | GI50 (SF-268 CNS): 197 nM | TGI (SF-268 CNS): 5420 nM | GI50 (SK-MEL-2 melanoma): < 10 nM | TGI (SK-MEL-2 melanoma): 1340 nM | GI50 (NCI-H522 lung): 17.5 nM | TGI (NCI-H522 lung): 293 nM | GI50 (PC-3 prostate): 127 nM | TGI (PC-3 prostate): 5850 nM | GI50 (NCI-H23 lung): 266 nM | TGI (NCI-H23 lung): 5090 nM | GI50 (UO-31 renal): 227 nM | TGI (UO-31 renal): 3260 nM | GI50 (SK-OV-3 ovarian): 233 nM | TGI (SK-OV-3 ovarian): 5000 nM | GI50 (CCRF-CEM leukemia): 16.3 nM | TGI (CCRF-CEM leukemia): 2130 nM | GI50 (A498 renal): 289 nM | TGI (A498 renal): 22700 nM | GI50 (OVCAR-5 ovarian): 1110 nM | TGI (OVCAR-5 ovarian): 11500 nM | GI50 (HCT-116 colon): < 10 nM | TGI (HCT-116 colon): 1320 nM | GI50 (HCC-2998 colon): 539 nM | TGI (HCC-2998 colon): 3780 nM | GI50 (SF-539 CNS): 221 nM | TGI (SF-539 CNS): 1050 nM | GI50 (MCF7 breast): 429 nM | TGI (MCF7 breast): 1760 nM | GI50 (UACC-62 melanoma): < 10 nM | TGI (UACC-62 melanoma): 1310 nM | GI50 (SR leukemia): < 28.4 nM | TGI (SR leukemia): 1740 nM | GI50 (OVCAR-8 ovarian): 180 nM | TGI (OVCAR-8 ovarian): 1490 nM | GI50 (MDA-MB-231 breast): 350 nM | TGI (MDA-MB-231 breast): 1690 nM | GI50 (SK-MEL-5 melanoma): < 10 nM | TGI (SK-MEL-5 melanoma): 137 nM | GI50 (LOX IMVI melanoma): < 10 nM | TGI (LOX IMVI melanoma): 1580 nM | GI50 (MALME-3M melanoma): 2180 nM | TGI (MALME-3M melanoma): 26700 nM | GI50 (OVCAR-4 ovarian): 1490 nM | TGI (OVCAR-4 ovarian): 14400 nM | GI50 (NCI-H226 lung): 502 nM | TGI (NCI-H226 lung): 19200 nM | GI50 (HOP-92 NSCLC): 4890 nM | TGI (HOP-92 NSCLC): 22300 nM | GI50 (CAKI-1 renal): 176 nM | TGI (CAKI-1 renal): 5130 nM | GI50 (BT-549 breast): 2220 nM | TGI (BT-549 breast): 20400 nM | GI50 (SNB-75 CNS): 211 nM | TGI (SNB-75 CNS): 9750 nM | GI50 (U251 CNS): < 10 nM | TGI (U251 CNS): 1390 nM | GI50 (ACHN renal): < 30.7 nM | TGI (ACHN renal): 1880 nM | GI50 (DU-145 prostate): 53.5 nM | TGI (DU-145 prostate): 1630 nM | GI50 (HS 578T breast): 170 nM | TGI (HS 578T breast): 11000 nM | GI50 (SN12C renal): 172 nM | TGI (SN12C renal): 1890 nM | GI50 (NCI/ADR-RES ovarian): < 20.4 nM | TGI (NCI/ADR-RES ovarian): 498 nM | GI50 (UACC-257 melanoma): 1110 nM | TGI (UACC-257 melanoma): 3080 nM | GI50 (SF-295 CNS): 150 nM | TGI (SF-295 CNS): 1280 nM | GI50 (M14 melanoma): < 19.2 nM | TGI (M14 melanoma): 1180 nM | GI50 (SNB-19 CNS): 146 nM | TGI (SNB-19 CNS): 18600 nM
